This note sets out measurements from patent publication US8865662B2, “Macrolides and their use” (Basilea Pharmaceutica AG, priority 2009, dated 2014).

The test deals with human PDE4. In words: IMAP FP enzymatic assay of PDE4 inhibition. The class given is biochemical. To be noted: PDE4 partially purified from human monocytic U-937 cells; fluorescently labeled cAMP substrate; 90 minutes at room temperature; fluorescence polarization. As for the experimental part:
PDE4 specifically hydrolyzes cAMP and releases the product AMP. The potency of PDE inhibition by said agents is determined in an in vitro enzymatic assay. The assay is commercially available (IMAP™ FP assay Molecular Devices Corp. (MDS)) and is optimized for the use of human PDE4. Fluorescently labeled cAMP is hydrolyzed by PDE4 and in a second step, binding of labeled product to a large binding partner allowed product detection by fluorescence polarization (FP) measurements.
PDE4 is partially purified from undifferentiated human monocytic cells (U-937) according to Thorpy et al. 1992 (J. Pharmacol. Exp. Ther. 263: 1195). […] In addition, PDE4 preparations are validated by inhibition studies with PDE4-specific and unspecific PDE inhibitors.
Stock solutions of test compounds are made in DMSO and diluted in assay buffer (10 mM Tris-HCl, 10 mM MgCl2, 0.1% BSA 0.05% NaN3, pH 7.2) to the desired concentrations. The solutions used in the assay contained test compound in assay buffer with 2% DMSO.
10 μl of substrate (at a concentration recommended by the manufacturer) are mixed with 5 μl of appropriately diluted PDE and 5 μl of test compound solution. 5 μl of reaction buffer with 2% DMSO are used for control reactions. […] After incubation for 90 minutes at room temperature, 60 μl of binding reagent are added as specified by the manufacturer. Binding is allowed to proceed for 30 minutes and fluorescence polarization is measured. Dose dependence of PDE inhibition is measured by assaying dilution series of test compounds in duplicates. IC50 values are determined from the measured activities by curve fitting.
As for `CC[C@H]1OC(=O)[C@H](C)[C@@H](O[C@H]2C[C@@](C)(OC)[C@@H](O)[C@H](C)O2)[C@H](C)[C@@H](O[C@@H]2O[C@H](C)C[C@H](N(C)C(=O)N3CCOCC3)[C@H]2O)[C@](C)(OC)C[C@@H](C)C(=O)[C@H](C)[C@H]2N(CCCN(Cc3c(Cl)cncc3Cl)c3ccc(OC)c(OC4CCCC4)c3)C(=O)O[C@]12C` [Example 1], the IC50 came out at 230 nM.
The result for `CC[C@H]1OC(=O)[C@H](C)[C@@H](O)[C@H](C)[C@@H](O[C@@H]2O[C@H](C)C[C@H](N(C)C(=O)N3CCOCC3)[C@H]2O)[C@](C)(OC)C[C@@H](C)C(=O)[C@H](C)[C@H]2N(CCCN(Cc3c(Cl)cncc3Cl)c3ccc(OC)c(OC4CCCC4)c3)C(=O)O[C@]12C` [Example 2] reads 880 nM; that for `CC[C@H]1OC(=O)[C@H](C)[C@@H](O[C@H]2C[C@@](C)(OC)[C@@H](O)[C@H](C)O2)[C@H](C)[C@@H](O[C@@H]2O[C@H](C)C[C@H](N(C)C(=O)N3CCOCC3)[C@H]2O)[C@](C)(OC)C[C@@H](C)C(=O)[C@H](C)[C@H]2N(CCCOc3cc(C(=O)Nc4c(Cl)cncc4Cl)ccc3OC)C(=O)O[C@]12C` [Example 3], 630 nM.
To `CC[C@H]1OC(=O)[C@H](C)[C@@H](O)[C@H](C)[C@@H](O[C@@H]2O[C@H](C)C[C@H](N(C)C(=O)N3CCOCC3)[C@H]2O)[C@](C)(OC)C[C@@H](C)C(=O)[C@H](C)[C@H]2N(CCCOc3cc(C(=O)Nc4c(Cl)cncc4Cl)ccc3OC)C(=O)O[C@]12C` [Example 4] belongs 30 nM.
To `CC[C@H]1OC(=O)[C@H](C)[C@@H](OC(=O)CN2CCOCC2)[C@H](C)[C@@H](O[C@@H]2O[C@H](C)C[C@H](N(C)C(=O)CN(C)C)[C@H]2O)[C@](C)(OC)C[C@@H](C)C(=O)[C@H](C)[C@H]2N(CCCOc3cc(C(=O)Nc4c(Cl)cncc4Cl)ccc3OC)C(=O)O[C@]12C` [Example 5] belongs 200 nM.
